Measured values published in patent US20170275666A1, “Methods for Preparing Rebaudioside I and Uses” (The Coca-Cola Company, priority 2014, published 2017).
“And” between values parts separate entries of the source, which are not always exact repeats. Identical values can stand only once.

Legend:
[1] = Sensory characteristics of rebaudioside I compared to rebaudioside M (taste panel); type: in vivo; settings: 400 ppm in water, approximately 4° C., seven panelists
Experimental: Rebaudioside I was evaluated to determine its sensory profile, including in comparison to rebaudioside M.
Samples were prepared at a concentration of 400 ppm in a water matrix. Analysis to determine the actual concentration of the samples was preformed.
Seven panelists participated in testing of rebaudioside I and rebaudioside M. Samples were served at approximately 4° C. Panelists were instructed to take 1 sip of the sample (10 mL), hold in mouth for 5 seconds, expectorate and rate the taste attributes, as described below. A 5 minute break was placed between each sample and panelist were instructed to cleanse their palates with at least 1 bite of an unsalted cracker and 2 sips of filtered water. Samples were randomized and each sample was present in replicate in the session.
Attributes evaluated included: sweet taste intensity (maximum level of sweeteness in mouth during 5 seconds); bitter taste intensity (maximum level of bitterness in mouth during 5 seconds); overall maximum sweet intensity (maximum sweet intensity experienced from time sip is taken up to 1 minute); overall maximum bitter intensity (maximum bitter intensity experienced from time sip is taken up to 1 minute); other intensity (intensity of any taste, aromatic or mouth feel other than sweet and bitter (e.g., metallic, plastic, licorice, etc.); sweet linger intensity (sweet intensity 1 minute after expectoring the sample); and bitter aftertaste intensity (bitter intensity one minute after expectoring the sample).
Fishers LSD was used to compare significant differences between the mean scores.

[2] = Taste properties of beverage formulations (flavored black tea, enhanced water, lemon-lime flavored sparkling beverage); type: in vivo
Experimental: Reb I levels are evaluated in an zero calorie Lemon-lime-flavored sparking beverage base to determine the effect of increasing sweetness. Samples of the Lemon-lime-flavored sparkling beverage with Reb I in amounts between 400 and 750 ppm (in 50 ppm increments) and 3.5% allulose are prepared. […] Samples having 550 ppm and 600 ppm Reb I are found to be the closest in sweetness level to an 10.0 Brix HFCS sweetened Lemon-lime flavored sparkling beverage formulation.

[3] = Activity of in-vivo preparations of UGT91D2, transformation of Rubusoside to Stevioside; type: biochemical; settings: per mL of lysate, 30° C., pH 7.2
Experimental: Activity tests were performed at 5 mL scale with 1000 μL of lysate for the transformation of Rubusoside to Stevioside using 0.5 mM of substrate, 2.5 mM of UDP-Glucose and 3 mM MgCl2 in 50 mM Sodium Phosphate buffer at pH 7.2. Samples were taken and analyzed by HPLC.

[4] = Directed evolution of UGT76G1, conversion of Rebaudioside D to Rebaudioside M (round 1); type: biochemical; settings: 0.5 mM Rebaudioside D, 2.5 mM UDP-Glucose, 100 μL fresh lysate, 30° C., pH 7.2
Summary of the method: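 UGT76G1 variants carrying 3-5 designed mutations were expressed in E. coli BL21(DE3) (pET30a+, 44 h at 20° C) and lysed. Lysate was reacted with 0.5 mM Reb D, 2.5 mM UDP-glucose, 3 mM MgCl2 in 50 mM phosphate pH 7.2 at 30° C; HPLC-CAD sampling at 2, 4, 7, 24 h gave conversion and initial rate.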

Molecule | Bitter Aftertaste Intensity [1] | Bitter Taste Intensity [1] | Other Intensity [1] | Overall Max Bitterness Intensity [1] | Overall Max Sweetness Intensity [1] | Sweet Linger Intensity [1] | Sweet Taste Intensity [1] | Conversion Reb D to Reb M after 24 h (%) [4] [%] | initial rate (Reb M area/min) [4] [Reb M area/min] | other results
C=C1C[C@@]23CC[C@H]4[C@@](C)(CCC[C@@]4(C)C(=O)O[C@@H]4O[C@H](CO)[C@@H](O)[C@H](O[C@@H]5O[C@H](CO)[C@@H](O)[C@H](O)[C@H]5O)[C@H]4O[C@@H]4O[C@H](CO)[C@@H](O)[C@H](O)[C@H]4O)[C@@H]2CC[C@]1(O[C@@H]1O[C@H](CO)[C@@H](O)[C@H](O[C@@H]2O[C@H](CO)[C@@H](O)[C@H](O)[C@H]2O)[C@H]1O[C@@H]1O[C@H](CO)[C@@H](O)[C@H](O)[C@H]1O)C3 [Reb M, Rebaudioside M, reference compound] | 0.8 | 1.0 | 0.9 | 1.6 | 8.0 | 4.9 | 7.4 |  |  | 
C=C1C[C@@]23CC[C@H]4[C@@](C)(CCC[C@@]4(C)C(=O)OC4OC(CO)C(O)C(OC5OC(CO)C(O)C(O)C5O)C4O)[C@@H]2CCC1(OC1OC(CO)C(O)C(OC2OC(CO)C(O)C(O)C2O)C1OC1OC(CO)C(O)C(O)C1O)C3 (stereo partly shown) [Reb I] | 1.3 | 1.4 | 1.3 | 2.1 | 7.2 | 3.5 | 5.9 |  |  | taste properties compared to Reb A drink ([2]; flavored zero calorie black tea drink, 275 ppm): much cleaner in finish with less sweetness linger and a more rounded overall sweetness profile; Reb I concentration closest in sweetness level to 10.0 Brix HFCS sweetened Lemon-lime flavored sparkling beverage ([2]; zero calorie Lemon-lime-flavored sparkling beverage with 3.5% allulose): 550 ppm and 600 ppm; taste compared to Reb A-containing formulations ([2]; zero calorie Lemon-lime-flavored sparkling beverage, 400 to 750 ppm Reb I and 3.5% allulose): significantly better than comparable Reb A-containing formulations; taste properties compared to Reb A drink ([2]; zero calorie enhanced water drink, 200 ppm): cleaner in finish and has a reduced sweetness linger and a more rounded overall sweetness taste quality; Overall Max Sweetness Intensity ([1]; listed as Rebaudioside I): lower; Sweet Linger Intensity ([1]; listed as Rebaudioside I): lower; Sweet Taste Intensity ([1]; listed as Rebaudioside I): lower
UGT91D2: UDP-glucosyltransferase (Genbank ACE87855.1) produced in E. coli, tested as lysate (protein, UniProt B3VI56 1-473, looked up, E. coli lysate, UDP-glucosyltransferase (Genbank ACE87855.1) produced in E. coli, tested as lysate) UDP-glycosyltransferase 91D2: MATSDSIVDDRKQLHVATFPWLAFGHILPYLQLSKLIAEKGHKVSFLSTTRNIQRLSSHISPLINVVQLTLPRVQELPEDAEATTDVHPEDIPYLKKASDGLQPEVTRFLEQHSPDWIIYDYTHYWLPSIAASLGISRAHFSVTTPWAIAYMGPSADAMINGSDGRTTVEDLTTPPKWFPFPTKVCWRKHDLARLVPYKAPGISDGYRMGLVLKGSDCLLSKCYHEFGTQWLPLLETLHQVPVVPVGLLPPEVPGDEKDETWVSIKKWLDGKQKGSVVYVALGSEVLVSQTEVVELALGLELSGLPFVWAYRKPKGPAKSDSVELPDGFVERTRDRGLVWTSWAPQLRILSHESVCGFLTHCGSGSIVEGLMFGHPLIMLPIFGDQPLNARLLEDKQVGIEIPRNEEDGCLTKESVARSLRSVVVEKEGEIYKANARELSKIYNDTKVEKEYVSQFVDYLEKNTRAVAIDHES |  |  |  |  |  |  |  |  |  | Transformation activity Rubusoside to Stevioside ([3]; plasmid pET30a+, expression strain ArcticExpress (DE3)): 21 mU mL^−1; Transformation activity Rubusoside to Stevioside ([3]; plasmid pET30a+, expression strain Tuner (DE3)): 28 mU mL^−1; Transformation activity Rubusoside to Stevioside ([3]; plasmid pMAL, expression strain ArcticExpress): 60 mU mL^−1; Transformation activity Rubusoside to Stevioside ([3]; plasmid pMAL, expression strain BL21): 9 mU mL^−1
UGT76G1var95: UGT76G1 variant, mutations A33G_I295M_K303G_I335V_A385T (protein, UniProt Q6VAB4 1-458, looked up, variant A33G I295M K303G I335V A385T) UDP-glycosyltransferase 76G1: MENKTETTVRRRRRIILFPVPFQGHINPILQLGNVLYSKGFSITIFHTNFNKPKTSNYPHFTFRFILDNDPQDERISNLPTHGPLAGMRIPIINEHGADELRRELELLMLASEEDEEVSCLITDALWYFAQSVADSLNLRRLVLMTSSLFNFHAHVSLPQFDELGYLDPDDKTRLEEQASGFPMLKVKDIKSAYSNWQILKEILGKMIKQTKASSGVIWNSFKELEESELETVIREIPAPSFLIPLPKHLTASSSSLLDHDRTVFQWLDQQPPSSVLYVSFGSTSEVDEKDFLEMARGLVDSGQSFLWVVRPGFVKGSTWVEPLPDGFLGERGRVVKWVPQQEVLAHGAIGAFWTHSGWNSTLESVCEGVPMIFSDFGLDQPLNTRYMSDVLKVGVYLENGWERGEIANAIRRVMVDEEGEYIRQNARVLKQKADVSLMKGGSSYESLESLVSYISSL |  |  |  |  |  |  |  | −1.3 | −1.7E+05 | 
UGT76G1var96: UGT76G1 variant, mutations F22L_E229A_L243P_F377C_A385T (protein, UniProt Q6VAB4 1-458, looked up, variant F22L E229A L243P F377C A385T) UDP-glycosyltransferase 76G1: MENKTETTVRRRRRIILFPVPLQGHINPILQLANVLYSKGFSITIFHTNFNKPKTSNYPHFTFRFILDNDPQDERISNLPTHGPLAGMRIPIINEHGADELRRELELLMLASEEDEEVSCLITDALWYFAQSVADSLNLRRLVLMTSSLFNFHAHVSLPQFDELGYLDPDDKTRLEEQASGFPMLKVKDIKSAYSNWQILKEILGKMIKQTKASSGVIWNSFKELEESALETVIREIPAPSFPIPLPKHLTASSSSLLDHDRTVFQWLDQQPPSSVLYVSFGSTSEVDEKDFLEIARGLVDSKQSFLWVVRPGFVKGSTWVEPLPDGFLGERGRIVKWVPQQEVLAHGAIGAFWTHSGWNSTLESVCEGVPMIFSDCGLDQPLNTRYMSDVLKVGVYLENGWERGEIANAIRRVMVDEEGEYIRQNARVLKQKADVSLMKGGSSYESLESLVSYISSL |  |  |  |  |  |  |  | 1.2 | 2.7E+05 | 
UGT76G1var7: UGT76G1 variant, mutations F22L_I43V_A239V (protein, UniProt Q6VAB4 1-458, looked up, variant F22L I43V A239V) UDP-glycosyltransferase 76G1: MENKTETTVRRRRRIILFPVPLQGHINPILQLANVLYSKGFSVTIFHTNFNKPKTSNYPHFTFRFILDNDPQDERISNLPTHGPLAGMRIPIINEHGADELRRELELLMLASEEDEEVSCLITDALWYFAQSVADSLNLRRLVLMTSSLFNFHAHVSLPQFDELGYLDPDDKTRLEEQASGFPMLKVKDIKSAYSNWQILKEILGKMIKQTKASSGVIWNSFKELEESELETVIREIPVPSFLIPLPKHLTASSSSLLDHDRTVFQWLDQQPPSSVLYVSFGSTSEVDEKDFLEIARGLVDSKQSFLWVVRPGFVKGSTWVEPLPDGFLGERGRIVKWVPQQEVLAHGAIGAFWTHSGWNSTLESVCEGVPMIFSDFGLDQPLNARYMSDVLKVGVYLENGWERGEIANAIRRVMVDEEGEYIRQNARVLKQKADVSLMKGGSSYESLESLVSYISSL |  |  |  |  |  |  |  | 0.2 | −6.0E+04 | 
